Like-named read-outs stand apart in the source and are kept apart here.
How the values were obtained:
[1] = test system: subjects with RRMS; experiment: BRAVO Phase III clinical trial, laquinimod 0.6 mg over placebo with reference arm IFN-β-1a (Avonex®); type: in vivo, human; conditions: vs placebo, 24 months
Excerpt: ALLEGRO and BRAVO are two clinical trials reported in, e.g., PCT International Application Publication No. WO/2010/147665 ([…] et al.). […] The primary endpoint was ARR. Secondary endpoints were Brain atrophy, time to EDSS progression confirmed at 3 months and MSFC z-score. […] One of the basic assumptions used to assess the sample size for the study was that treatment with laquinimod will reduce the patient population ARR by 25% or more when compared to the placebo group.

[2] = test system: relapsing MS; conditions: cited from earlier work
[3] = test system: subjects with RRMS; experiment: ALLEGRO Phase III clinical trial, laquinimod 0.6 mg over placebo, double-blind; type: in vivo, human; conditions: laquinimod 0.6 mg vs placebo, 24 months
Method: ALLEGRO and BRAVO are two clinical trials reported in, e.g., PCT International Application Publication No. WO/2010/147665 ([…] et al.). ALLEGRO was a study performed in subjects with RRMS to assess the efficacy, safety and tolerability of laquinimod 0.6 mg over placebo in a double-blind design. The treatment duration in this study was 24 months and it enrolled 1,106 patients equally distributed between laquinimod 0.6 mg and placebo arms. The primary endpoint was annualized relapse rate (ARR). Secondary endpoints were gadolinium-enhancing (GdE)-T1 and new-T2 lesions, time to Expanded Disability Status Scale (EDSS) progression confirmed at 3 months and multiple sclerosis functional composite (MSFC) z-score. In ALLEGRO the primary endpoint (ARR) and three key secondary endpoints were met.

[4] = test system: MS; conditions: 0.3 mg/day oral (Comi, 2007); cited from earlier work
[5] = test system: subjects with relapsing remitting multiple sclerosis (RRMS); experiment: Clinical trial MS-LAQ-305 (Phase III), oral laquinimod 0.6 mg/day or 1.2 mg/day vs placebo; type: in vivo, human
Method: A multinational, multicenter, randomized, double-blind, parallel-group, placebo-controlled study followed by an active treatment (clinical trial MS-LAQ-305) is conducted to evaluate the efficacy, safety and tolerability of two doses of oral administration of laquinimod (0.6 mg/day or 1.2 mg/day) laquinimod in subjects with relapsing remitting multiple sclerosis (RRMS). Study Duration • Screening period: up to 1 month. • Double-blind Placebo-controlled (DBPC) period (Period 1): At least 15 months, but not more than 24 months of once-daily, oral administration of either laquinimod 0.6 mg, 1.2 mg or matching oral placebo. DBPC period for all subjects is declared closed when all ongoing enrolled subjects complete at least 15 months of treatment. • Active-treatment (AT) period (Period 2): In this period (24 months), subjects who are assigned to either 0.6 mg or 1.2 mg daily oral laquinimod during the DBPC period continue with the same treatment assignment, whereas those who are assigned to placebo receive 1.2 mg daily oral laquinimod. Eligible subjects (approximately 1,800) are randomized in a 1:1:1 ratio into one of the following treatment arms: • 1. Laquinimod 0.6 mg: two capsules, one containing 0.6 mg laquinimod and the other containing matching placebo, administered orally once daily. • 2. Laquinimod 1.2 mg: two capsules containing 0.6 mg laquinimod administered orally once daily. • 3. Matching placebo: two capsules containing placebo (matching to the 0.6 mg) administered orally once daily. The study comprises of two treatment periods, Double-blind Placebo-controlled (DBPC) and Active-treatment (AT). Subjects who complete 24 months on study drug in Period 1 or complete at least 15 months on study drug when Period 1 is declared closed continue on to Period 2. The following assessments are performed at the specified time points: • 1. Vital signs are measured at each study visit. • 2. A physical examination is performed at months -1 (screening), 0 (baseline) 1, 3, 6, and every 6 months thereafter, ETD (if applicable) and until completion visit of Period 1. During Period 2, a physical examination is performed at months 0AT (baseline, completion visit of Period 1), 1AT, 3AT, 6AT and every 6 months thereafter, until completion/ETD of Period 2. • 3. The following safety clinical laboratory tests are performed: • (a) Complete blood count (CBC) with differential-at all scheduled visits during Periods 1 and 2. • (b) Serum chemistry (including electrolytes, liver enzymes, urea, creatinine, calculated Glomerular Filtration Rate (GFR)-at screening and prior to each MRI scan, glucose, total protein, albumin, direct and total bilirubin and pancreatic amylase)-at all scheduled visits during the DBPC and AT periods. Calculated Glomerular Filtration Rate (GFR) is done at screening and prior to each MRI scan in both study periods. • (c) Lipid profile (total cholesterol, HDL, LDL, triglycerides)-at baseline and every 12 months during the DBPC and AT periods. • (d) Urinalysis-at the screening visit. • (e) Serum β-hCG (human choriogonadotropin beta) in women of child-bearing potential-at each scheduled study visit during the DBPC and AT periods. • (f) Urine β-hCG test in women of child-bearing potential-at baseline (month 0) and at all scheduled visits during the DBPC and AT periods. • (g) Starting after visit Month 3, between scheduled visits, a rapid urine β-hCG test is performed in women of child-bearing potential every 28 (±2) days. The subject is contacted within 72 hours after the scheduled test is performed and asked specific questions regarding the test. In case of suspected pregnancy (positive urine β-hCG test result) the caller instructs the subject to make sure that the study drug has been discontinued and the subject arrives at the site as soon as possible (within 10 days) with all study drugs-during the DBPC and AT periods. • 4. […]

[6] = in vivo; cited from earlier work
[7] = corrected post-hoc analysis with two baseline MRI covariates
[8] = daily oral 1.2 mg compared to 0.6 mg laquinimod or placebo

CCN(C(=O)c1c(O)c2c(Cl)cccc2n(C)c1=O)c1ccccc1 [Laquinimod, laquinimod]
ARR % reduction, Corrected [1, 7]: 21.3% | Brain Atrophy % reduction, Corrected [1, 7]: 27.4% | Cumulative number of GdE T1 lesions % reduction, Corrected [1, 7]: 21.7% | Cumulative number of new T2 lesions (exploratory endpoint) % reduction, Corrected [1, 7]: 18.7% | EDSS Progression (3 m confirmation) % reduction, Corrected [1, 7]: 33.5% | MSFC % reduction, Corrected [1, 7]: 77.1% | ARR % reduction, Corrected ([1]; corrected post-hoc analysis with two baseline MRI covariates, listed as laquinimod): 21.3% | ARR % reduction, Original ([1]; original analysis): 17.7% | Brain Atrophy % reduction, Original ([1]; original analysis): 27.6% | Cumulative number of GdE T1 lesions % reduction, Original ([1]; original analysis): 21.5% | Cumulative number of new T2 lesions (exploratory endpoint) % reduction, Original ([1]; original analysis): 16.5% | EDSS Progression (3 m confirmation) % reduction, Original ([1]; original analysis): 31.3% | MSFC % reduction, Original ([1]; original analysis): 77.7% | ARR % reduction, Original ([1]; original analysis, listed as laquinimod): 17.7% | Development of active MRI lesions ([2]; 0.3 mg/day oral, relapsing MS (RRMS and SPMS) (Polman, 2005)): reduce development of active MRI lesions | Development of active MRI lesions ([2]; relapsing MS, dose not stated (Polman, 2005)): reduce development of active MRI lesions | ARR % reduction [3]: 23% | Brain Atrophy (exploratory endpoint) % reduction [3]: 32.8% | Cumulative number of GdE T1 lesions % reduction [3]: 37% | Cumulative number of new T2 lesions % reduction [3]: 30% | EDSS Progression (3 m confirmation) % reduction [3]: 36% | MSFC z-score % reduction [3]: 51% | MRI and clinical effect as compared to placebo [4]: neither MRI nor clinical effect | Efficacy in treating RRMS patients with respect to all endpoints ([5]; 1.2 mg/day compared to 0.6 mg/day laquinimod): improved efficacy | Fatigue and functional status ([5]; 1.2 mg/day compared to 0.6 mg/day laquinimod or placebo): maintained or improved | Time to first confirmed relapse ([5]; daily oral 1.2 mg compared to 0.6 mg laquinimod and placebo): prolonged time to first confirmed relapse | Accumulation of disability as measured by the MSFC score or Timed 25-foot walk (T25FW) [5, 8]: reduced the accumulation of disability | Annualized relapse rate [5, 8]: lower annualized relapse relate | Brain atrophy, percent brain volume change from baseline to month 15 [5, 8]: reduced brain atrophy | Brain atrophy, percent change in brain volume from baseline to month 24 [5, 8]: reduced brain atrophy | Functional status and general health, Short-Form general health survey (SF-36) [5, 8]: improved functional status and general health | MRI-monitored disease activity (enhancing T1, new hypointense T1, new T2 lesion numbers and lesion volume changes) [5, 8]: reduced MRI-monitored disease activity | Neuroprotection [5, 8]: more effective in providing neuroprotection | Number of confirmed relapses [5, 8]: reduced number of confirmed relapses | Symbol Digit Modalities Test (SDMT) score [5, 8]: improved Symbol Digit Modalities Test (SDMT) score | Time to Confirmed Disease Progression (CDP) [5, 8]: prolonged time to CDP | Oral bioavailability [6]: high

— US20160000775A1, “USE OF HIGH DOSE LAQUINIMOD FOR TREATING MULTIPLE SCLEROSIS” (Teva Pharmaceutical Industries, Ltd., priority 2012, published 2016)
